The target in assay [1] is NRAS Q61K (Homo sapiens, UniProt P01111+P62937, Q61K). Put plainly: Disruption of BRAF RBD interaction with Ras (FRET / MOA assay, with Cyclophilin A). The assay is classed as biochemical. To be noted: NRAS Q61K; read-out: NRAS Q61K FRET data IC50. Summed up: (§1)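 IC50 reflects compound-driven Ras:Cyclophilin A ternary complex displacing BRAF RBD, read as lowered TR-FRET ratio relative to DMSO after Eu anti-His (10 nM) and APC anti-GST (50 nM) detection for 1.5 h. Prior incubation 3 h, 25° C, with 12.5 nM GMPPNP-loaded Ras, 50 nM BRAF RBD, 25 μM Cyclophilin A; top compound 30 μM.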
Sequence of NRAS Q61K (P01111 whole entry Q61K): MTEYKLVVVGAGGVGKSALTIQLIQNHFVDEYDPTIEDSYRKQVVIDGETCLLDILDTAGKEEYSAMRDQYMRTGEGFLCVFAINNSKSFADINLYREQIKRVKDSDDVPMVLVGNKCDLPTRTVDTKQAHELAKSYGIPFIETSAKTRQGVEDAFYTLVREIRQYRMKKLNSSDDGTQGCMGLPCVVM
Sequence of NRAS Q61K (P62937 whole entry): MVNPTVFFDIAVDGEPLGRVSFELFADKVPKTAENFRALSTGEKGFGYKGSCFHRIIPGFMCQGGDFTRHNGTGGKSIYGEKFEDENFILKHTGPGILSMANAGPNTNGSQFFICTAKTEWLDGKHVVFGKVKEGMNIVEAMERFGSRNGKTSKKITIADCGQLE

For assay [2], the target named is NRAS Q61R (Homo sapiens, UniProt P01111+P62937, Q61R). The assay is described as above. The assay is classed as biochemical. To be noted: NRAS Q61R; read-out: NRAS Q61R FRET data IC50. Summed up:
as §1

Assay [3] has as its target KRAS Q61H (Homo sapiens, UniProt P01116+P62937, Q61H). The description is as above. The settings on record: KRAS Q61H; read-out: KRAS Q61H FRET data IC50. The assay is classed as biochemical. The method, boiled down:
as §1

In assay [4] the target is NRAS WT (Homo sapiens, UniProt P01111+P62937). Described as above. The assay is classed as biochemical. The settings on record: NRAS WT; read-out: NRAS WT FRET data IC50. Summed up: as §1
Sequence of NRAS WT (P01111 whole entry): as the sequence (P01111 whole entry Q61K) above, with K61Q counted along it
Sequence of NRAS WT (P62937 whole entry): as the sequence (P62937 whole entry) above
The target in assay [5] is KRAS G12D (Homo sapiens, UniProt P01116+P62937, G12D). Described as above. To be noted: read-out: KRAS G12D FRET data, IC50. In kind it is biochemical. Summed up: (§2)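 Measured via TR-FRET after 3 h at 25 °C with compound (30 μM top, threefold serial steps, ten concentrations) plus K-Ras, Cyclophilin A and BRAF RBD, followed by 1.5 h with anti-His europium (10 nM) and anti-GST allophycocyanin (50 nM). Signal loss versus DMSO gave IC50.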
Sequence of KRAS G12D (P01116 1-169 isoform P01116-2 G12D limits assumed): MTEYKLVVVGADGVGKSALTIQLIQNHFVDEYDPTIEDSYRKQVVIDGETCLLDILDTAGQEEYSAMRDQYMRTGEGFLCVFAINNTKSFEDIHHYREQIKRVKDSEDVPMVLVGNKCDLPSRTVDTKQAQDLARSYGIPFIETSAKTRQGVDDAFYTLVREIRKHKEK
Sequence of KRAS G12D (P62937 whole entry): as the sequence (P62937 whole entry) above

For assay [6], the target named is KRAS WT (Homo sapiens, UniProt P01116+P62937). The description is as above. The settings on record: KRAS WT; read-out: KRAS WT FRET data IC50. The assay is classed as biochemical. Summed up:
as §2

Assay [7] concerns the target KRAS G12V (Homo sapiens, UniProt P01116+P62937, G12V). The description is as above. To be noted: KRAS G12V; read-out: KRAS G12V FRET data IC50. The assay is classed as biochemical. Summed up:
as §2

In assay [8] the target is NRAS G12C (Homo sapiens, UniProt P01111+P62937, G12C). The assay is described as above. In kind it is biochemical. To be noted: NRAS G12C; read-out: NRAS G12C FRET data IC50.
Sequence of NRAS G12C (P01111 whole entry G12C): as the sequence (P01111 whole entry Q61K) above, with G12C, K61Q counted along it
Sequence of NRAS G12C (P62937 whole entry): as the sequence (P62937 whole entry) above
The target of assay [9] is KRAS G12C (Homo sapiens, UniProt P01116+P62937, G12C). The assay is described as above. The assay is classed as biochemical. To be noted: read-out: KRAS G12C FRET data, IC50. Summed up:
as §2

Assay [10] concerns the target KRAS G12S (Homo sapiens, UniProt P01116+P62937, G12S). Described as above. The assay is classed as biochemical. To be noted: read-out: KRAS G12S FRET data, IC50. Summed up:
as §2

For assay [11], the target named is KRAS G13C (Homo sapiens, UniProt P01116+P62937, G13C). Described as above. The assay is classed as biochemical. To be noted: read-out: KRAS G13C FRET data, IC50. The method, boiled down:
as §2

Assay [12] has as its target KRAS G13D (Homo sapiens, UniProt P01116+P62937, G13D). The assay is described as above. The settings on record: KRAS G13D; read-out: KRAS G13D FRET data IC50. In kind it is biochemical. Summed up: as §2
Assay [13] concerns Capan-1 (K-Ras G12V). Put plainly: CellTiter-Glo cell viability assay, 5-day treatment. In kind it is cell-based. The settings on record: Homo sapiens, CAPAN-1, 120 h, 5-day treatment; read-out: Capan-1 Cell Viability assay data (K-Ras G12V, IC50). The method, boiled down:
(§3)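 Five-day compound treatment of plated cells; luminescent read after ~30 min at RT. Percent-of-DMSO data fit to a four-parameter logistic model.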

Assay [14] concerns NCI-H358 (K-Ras G12C). Described as above. In kind it is cell-based. To be noted: Homo sapiens, NCI-H358, 120 h, 5-day treatment; read-out: H358 Cell Viability assay data (K-Ras G12C, IC50). Summed up: as §3

Sequence of KRAS WT (P01116 1-169 isoform P01116-2 limits assumed): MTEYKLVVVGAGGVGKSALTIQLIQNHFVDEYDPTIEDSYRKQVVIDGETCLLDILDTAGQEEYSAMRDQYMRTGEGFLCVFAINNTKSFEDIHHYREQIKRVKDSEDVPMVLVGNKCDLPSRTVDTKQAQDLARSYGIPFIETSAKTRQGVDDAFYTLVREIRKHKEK
Sequence of KRAS WT (P62937 whole entry): as the sequence (P62937 whole entry) above
Sequence of KRAS G12S (P01116 1-169 isoform P01116-2 G12S limits assumed): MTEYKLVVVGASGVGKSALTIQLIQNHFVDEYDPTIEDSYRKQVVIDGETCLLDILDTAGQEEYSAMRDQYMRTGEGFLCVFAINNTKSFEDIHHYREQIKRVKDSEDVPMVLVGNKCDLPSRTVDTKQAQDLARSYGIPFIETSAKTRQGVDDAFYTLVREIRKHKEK
Sequence of KRAS G12S (P62937 whole entry): as the sequence (P62937 whole entry) above
Sequence of KRAS Q61H (P01116 1-169 isoform P01116-2 Q61H limits assumed): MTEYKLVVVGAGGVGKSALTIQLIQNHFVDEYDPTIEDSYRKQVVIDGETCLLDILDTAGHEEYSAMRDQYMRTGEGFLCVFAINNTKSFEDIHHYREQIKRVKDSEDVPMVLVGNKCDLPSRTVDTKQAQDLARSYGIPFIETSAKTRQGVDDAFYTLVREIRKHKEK
Sequence of KRAS Q61H (P62937 whole entry): as the sequence (P62937 whole entry) above
Sequence of KRAS G12V (P01116 1-169 isoform P01116-2 G12V limits assumed): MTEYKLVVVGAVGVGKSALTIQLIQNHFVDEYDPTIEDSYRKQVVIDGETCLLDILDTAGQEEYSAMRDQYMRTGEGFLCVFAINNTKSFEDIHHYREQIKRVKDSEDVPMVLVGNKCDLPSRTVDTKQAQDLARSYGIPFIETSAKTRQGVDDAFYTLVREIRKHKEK
Sequence of KRAS G12V (P62937 whole entry): as the sequence (P62937 whole entry) above
Sequence of NRAS Q61R (P01111 whole entry Q61R): as the sequence (P01111 whole entry Q61K) above, with K61R counted along it
Sequence of NRAS Q61R (P62937 whole entry): as the sequence (P62937 whole entry) above
Sequence of KRAS G13C (P01116 1-169 isoform P01116-2 G13C): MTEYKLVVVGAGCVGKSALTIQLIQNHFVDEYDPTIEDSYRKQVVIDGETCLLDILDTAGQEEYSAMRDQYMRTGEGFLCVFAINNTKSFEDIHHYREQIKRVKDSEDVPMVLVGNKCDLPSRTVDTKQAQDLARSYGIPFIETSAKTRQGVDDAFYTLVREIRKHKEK
Sequence of KRAS G13C (P62937 whole entry): as the sequence (P62937 whole entry) above
Sequence of KRAS G12C (P01116 1-169 isoform P01116-2 G12C): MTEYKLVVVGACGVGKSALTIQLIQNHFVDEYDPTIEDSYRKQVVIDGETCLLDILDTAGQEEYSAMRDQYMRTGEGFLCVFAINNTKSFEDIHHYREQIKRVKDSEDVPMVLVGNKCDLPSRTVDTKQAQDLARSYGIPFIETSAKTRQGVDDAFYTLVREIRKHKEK
Sequence of KRAS G12C (P62937 whole entry): as the sequence (P62937 whole entry) above
Sequence of KRAS G13D (P01116 1-169 isoform P01116-2 G13D limits assumed): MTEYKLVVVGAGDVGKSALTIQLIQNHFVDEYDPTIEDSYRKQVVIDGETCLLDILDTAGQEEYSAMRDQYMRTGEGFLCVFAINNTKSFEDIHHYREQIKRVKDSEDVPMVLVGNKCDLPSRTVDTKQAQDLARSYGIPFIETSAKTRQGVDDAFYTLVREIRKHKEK
Sequence of KRAS G13D (P62937 whole entry): as the sequence (P62937 whole entry) above

As to `CCn1c(-c2cccnc2[C@H](C)OC)c2c3cc(ccc31)-c1csc(n1)C[C@H](NC(=O)[C@H](C(C)C)N(C)C(=O)N1CC[C@@H]1CN(C)C)C(=O)N1CCC[C@H](N1)C(=O)OCC(C)(C)C2` [Example A502], the IC50 – broadly, the concentration needed to halve the response being measured – is 100 to 1000 nM in assay [1]; 100 to 1000 nM in assay [2]; 10 to 100 nM in assay [3]; 100 to 1000 nM in assay [4]; 100 to 1000 nM in assay [5]; 100 to 1000 nM in assay [6]. Besides, the IC50 lay within 1000 to 10000 nM in assay [7]; 100 to 1000 nM in assay [8]; 100 to 1000 nM in [9]; 100 to 1000 nM in [10]; 100 to 1000 nM in [11]; 100 to 1000 nM in [12]. In addition, the IC50 in assay [13] fell in the range of 100 to 1000 nM; in assay [14] it was 10 to 100 nM.

As for `CCn1c(-c2cccnc2[C@H](C)OC)c2c3cc(ccc31)-c1csc(n1)C[C@H](NC(=O)[C@H](C(C)C)N(C)C(=O)N(C)C[C@@H]1CCCN1C)C(=O)N1CCC[C@H](N1)C(=O)OCC(C)(C)C2` [Example A504], the IC50 in [1] lay in the range of 1000 to 10000 nM; in [2] it was 1000 to 10000 nM; in assay [3] it was 100 to 1000 nM; in [4], 100 to 1000 nM; in assay [5] it was 1000 to 10000 nM; in assay [6], 100 to 1000 nM. Also, the IC50 in assay [7] was in the range of 1000 to 10000 nM; in assay [8], 100 to 1000 nM; in [9], 100 to 1000 nM; in assay [10], 1000 to 10000 nM; in [11] it was 100 to 1000 nM; in assay [12] it was 100 to 1000 nM. For the same molecule, the IC50 in assay [13] and in [14] was 100 to 1000 nM throughout.

Consider `CCn1c(-c2cccnc2[C@H](C)OC)c2c3cc(ccc31)-c1csc(n1)C[C@H](NC(=O)[C@H](C(C)C)N(C)C(=O)N1CC3(CCN(C)CC3)C1)C(=O)N1CCC[C@H](N1)C(=O)OCC(C)(C)C2` [Example A513], for which the IC50 in assay [1] lay within 100 to 1000 nM; in assay [2], 100 to 1000 nM; in [3] it was 100 to 1000 nM; in assay [4], 100 to 1000 nM; in assay [5], 1000 to 10000 nM; in assay [6], 100 to 1000 nM. The IC50 in assay [7], in assay [8], in assay [9], in assay [10], in [11] and in [12] was 100 to 1000 nM each time. Also, the IC50 in assay [13] and in [14] was 10 to 100 nM each time.

In the case of `CCn1c(-c2cccnc2[C@H](C)OC)c2c3cc(ccc31)-c1csc(n1)C[C@H](NC(=O)[C@H](C(C)C)N(C)C(=O)N1CCC[C@H]1CN(C)C)C(=O)N1CCC[C@H](N1)C(=O)OCC(C)(C)C2` [Example A519], the IC50 fell in the range of 1000 to 10000 nM in assay [1]; 1000 to 10000 nM in assay [2]; 100 to 1000 nM in assay [3]; 100 to 1000 nM in assay [4]; 1000 to 10000 nM in [5]; 100 to 1000 nM in assay [6]. Further, the IC50 in assay [7] fell in the range of 1000 to 10000 nM; in assay [8] it was 100 to 1000 nM; in assay [9] it was 100 to 1000 nM; in assay [10], 1000 to 10000 nM; in assay [11] it was 1000 to 10000 nM; in [12], 1000 to 10000 nM. The IC50 in assay [13] and in assay [14] was 1000 to 10000 nM in each case.

In the case of `CCn1c(-c2cccnc2[C@H](C)OC)c2c3cc(ccc31)-c1csc(n1)C[C@H](NC(=O)[C@H](C1CCCC1)N(C)C(=O)N1CCN(C)CC1)C(=O)N1CCC[C@H](N1)C(=O)OCC(C)(C)C2` [Example A525], the IC50 fell in the range of 100 to 1000 nM in [1]; 100 to 1000 nM in [2]; 100 to 1000 nM in assay [3]; 100 to 1000 nM in [4]; 1000 to 10000 nM in [5]; 100 to 1000 nM in assay [6]. The IC50 in assay [7], in assay [8], in assay [9], in assay [10], in assay [11] and in assay [12] was 100 to 1000 nM throughout. Further, the IC50 in assay [13] and in assay [14] was 10 to 100 nM throughout.

The record behind these values is patent US20230233569A1 (Revolution Medicines, Inc., priority 2020, published 2023).
